Data taken from US6716987B1, “Derivatives of benzofuran or benzodioxazole compounds” (Kyowa Hakko Kogyo Co., Ltd., priority 1995, dated 2004).

Assays:
TNF α production = experiment: Suppression effect on TNF α production in the LPS induced mouse sepsis model; assay type: in vivo; conditions: serum TNF α
Protocol: Lipopolysaccharide (LPS, DIFCO Laboratories) was dissolved in physiological saline to make a final concentration of 0.2 mg/ml. The resulting solution was administered intravenously to the tail of Balb/c male mice (7-week-old) (Charls River Japan Co.) at 200 μl per 20 g body weight of 5 to 6 mice/group. One hour after administration, blood was drawn from a fundus oculi vein of each mouse to obtain serum. […] The concentration of TNF a in serum was measured by enzyme-linked immunosorbent assay (ELISA method) as follows: […] anti-mouse TNF a monoclonal antibody (Pharmingen Inc.) diluted with a phosphate buffer solution (PBS) was added to a 96-well microtiter plate (Nalge Nunc International immuno-plate <MaxiSorp=) at […]; allowed to stand at 4° C. for 12 hours for coating; mixed with […] of a phosphate buffer solution containing 1% bovine serum albumin (BSA) (1% BSA-PBS); allowed to stand at room temperature for 1 hour to block the non-specific binding; washed with phosphate buffer solution; mixed with […] of the subject serum diluted two-fold with 1% BSA-PBS; and allowed to stand at room temperature for 2 hours. Furthermore, recombinant mouse TNF α (Genzyme Corp.) diluted with 1% BSA-PBS was similarly treated and used as a standard substance. These plates were washed three times with PBS (0.05% Tween-PBS) containing 0.05% polyoxyethylenesorbitan monolaurate (Tween 20, Wako Pure Chemical Industries, Ltd.), mixed with […] of biotin-labelled anti-mouse TNF α monoclonal antibody (Method A: Pharmingen Inc.; Method B: Genzyme Corp) diluted with 1% BSA-PBS to make a concentration of 1 mg/ml, allowed to stand at room temperature for 1 hour, washed three times with 0.05% Tween-PBS, mixed with […] of horseradish peroxidase avidin D (Vector Laboratories Inc.) diluted four-thousand-fold with 1% BSA-PBS, and allowed to stand at room temperature for 30 min. Finally, these plates were washed three times with 0.05% Tween-PBS, and mixed with […] of 3,3′,5,5′-tetramethylbenzidine. After color development, the reaction was stopped by adding […] of 10% sulfuric acid solution, and then, the absorbance at 450 nm was measured. The concentration of TNF α in serum was calculated from a calibration curve.
The rate of suppression of each test compound on TNF α production was obtained from the following formula:
Suppression rate=(A−B)/A,
wherein A is the TNF α concentration of the control group and B is the TNF α concentration of the experimental group.
In the above formula, the TNF α concentration of the control group is defined as the value obtained in the absence of the test compound (0.5% methyl cellulose solution alone).
Employed as the reference compounds were 7-methoxy-4-[1-oxo-2-(4-pyridyl)ethyl]-spiro[2,3-dihydrobenzofuran-2,1′-cyclopentane] hydrochloride (disclosed in Example 100 of Japanese Patent Laid-Open No. 8-836624 and hereinafter referred to as Compound RA) having the formula (RA) and 2-benzoyl-4-(3,5-dichloro-4-pyridyl)aminocarbonyl)-7-methoxybenzofuran (disclosed in Example 35 of Japanese Patent Laid-Open No. 8-534708 and hereinafter referred to as Compound RB) having the formula (RB): [drawing 660]

Sunkus murinus = experiment: Effect on vomiting induction in male Sunkus murinus; assay type: in vivo; conditions: dose 10 mg/kg i.p., observed for 1 hour after administration
Protocol: Five to fifteen male Sunkus murinus per group weighing approximately 60 g were used for the test. According to the method of Matsumoto, et. al. [Japan J. Pharmacol., 48, 303 (1988)], Sunkus murinus were placed separately into metal wire cages (width 15 cm×length 21 cm×height 15 cm). Each sample of the test compound was suspened in a 0.5% Tween 80 physiological saline solution and administered intraperitoneally (i.p.) at a dose of 10 ml/kg. […] In the group that was administered the test-compound, the results are represented as the number of vomiting animals/the number of experimental animals. Compound RA was employed as a reference compound.

phosphodiesterase 4A = target: T1, phosphodiesterase 4A (Homo sapiens, UniProt P27815); experiment: Recombinant human PDE4A assay; assay type: biochemical; conditions: 10^−7 M, read-out: Enzyme Inhibitory Activity (%, 10^−7 M)
T1 construct: made in house; host or cells: E. coli
T1 sequence (P27815 224-886 limits assumed): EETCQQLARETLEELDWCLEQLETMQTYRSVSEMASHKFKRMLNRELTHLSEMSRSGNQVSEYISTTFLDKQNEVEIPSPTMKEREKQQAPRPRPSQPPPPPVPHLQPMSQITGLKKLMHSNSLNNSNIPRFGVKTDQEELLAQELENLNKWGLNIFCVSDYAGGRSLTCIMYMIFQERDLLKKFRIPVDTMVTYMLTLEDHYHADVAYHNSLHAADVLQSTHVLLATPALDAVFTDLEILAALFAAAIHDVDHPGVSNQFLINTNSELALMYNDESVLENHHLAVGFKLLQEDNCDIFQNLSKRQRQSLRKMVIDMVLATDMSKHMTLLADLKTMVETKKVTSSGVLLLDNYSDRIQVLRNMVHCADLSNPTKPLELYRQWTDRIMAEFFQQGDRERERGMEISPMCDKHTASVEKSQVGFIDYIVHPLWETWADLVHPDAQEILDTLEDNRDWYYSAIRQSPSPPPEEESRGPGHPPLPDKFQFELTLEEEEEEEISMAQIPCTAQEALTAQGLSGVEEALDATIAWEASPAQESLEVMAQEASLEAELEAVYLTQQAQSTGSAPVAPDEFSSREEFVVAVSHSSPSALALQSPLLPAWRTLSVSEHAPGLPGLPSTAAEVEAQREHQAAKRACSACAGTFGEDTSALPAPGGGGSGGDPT

[1] = Method A, dose 10 mg/kg orally 90 min before LPS
[2] = Method B, dose 30 mg/kg orally 90 min before LPS

Compound	Suppression rate (%) (TNF α production; [1])	Number of vomiting animals/Number of experimental animals (Sunkus murinus)	Suppression rate (%) (TNF α production; [2])	inhibition at 0.1 µM (phosphodiesterase 4A)	melting point
COc1ccc(C(=O)Nc2c(Cl)cncc2Cl)c2cc(C(=O)N3CCN(CCO)CC3)oc12 [Compound 202, 4-(3,5-dichloro-4-pyridyl)aminocarbonyl-7-methoxy-2-[4-(2-hydroxyethyl)-1-piperazinyl]carbonylbenzofuran]	92%	0/5			
7-(4-carboxy-4-pyridyl)-4-methoxy-spiro[1,3-benzodioxole-2,1=-cyclopentane] [Compound 203]	100%	1/5			
COc1ccc(C(=O)Cc2c(Cl)cncc2Cl)c2cc(C(=O)N3CCN(C)CC3)oc12 [Compound 206]		0/5	65%		
COc1ccc(C(=O)Cc2c(Cl)cncc2Cl)c2cc(C(=O)N3CCN(CCO)CC3)oc12 [Compound 207, 4-[2-(3,5-Dichloro-4-pyridyl)-1-oxoethyl]-2-[4-(2-hydroxyethyl)-1-piperazinylcarbonyl]-7-methoxybenzofuran]		0/5	65%		
COc1ccc(C(=O)Cc2ccncc2)c2c1OC1(CCCC1)C2.Cl [RA, 7-methoxy-4-[1-oxo-2-(4-pyridyl)ethyl]-spiro[2,3-dihydrobenzofuran-2,1′-cyclopentane] hydrochloride, reference compound]	81%	5/5	81%		
COc1ccc(C(=O)Nc2c(Cl)cncc2Cl)c2cc(C(=O)c3ccccc3)oc12 [RB, reference compound]	48%	0/5	30%		
COc1ccc(-c2cnccc2C)c2c1OC1(CCCC1)O2 [Compound 205, 4-methoxy-7-(4-methyl-3-pyridyl)-spiro[1,3-benzodioxole-2,1′-cyclopentane]]	79%	0/5			
COc1ccc(C(=O)Nc2c(Cl)cncc2Cl)c2cc(C(=O)CCCN3CCOCC3)oc12 [Compound 213, N-(3,5-Dichloropyridin-4-yl)-2-(4-morpholino)butyryl-7methoxybenzofuran-4-carboxamide]		0/5	65%		
COc1ccc(C(=O)Nc2c(Cl)cncc2Cl)c2cc(C(=O)N3CCN(C)CC3)oc12 [Compound 201, 4-(3,5-dichloro-4-pyridyl)aminocarbonyl-7-methoxy-2-(4-methyl-1-piperazinyl)carbonylbenzofuran]	70%	0/5			
COc1ccc(C(=O)Nc2c(Cl)cncc2Cl)c2cc(C(=O)CCCN3CCN(C)CC3)oc12 [Compound 214, N-(3,5-dichloropyridin-4-yl)-2-[4-(4-methyl-1-piperazinyl)]-butyryl-7-methoxybenzofuran-4-carboxamide]		3/5	65%		
COc1ccc(C(=O)Cc2c(Cl)cccc2Cl)c2cc(C(=O)c3ccccc3)oc12 [Compound 163, 2-Benzoyl-4-[2-(2,6-dichlorophenyl)-1-oxoethyl]-7-methoxybenzofuran]				96%	223 to 224 °C
COc1ccc(C(=O)Cc2c(Cl)cncc2Cl)c2c(CC(=O)NCc3ccccc3)coc12 [Compound 155, 3-Benzylaminocarbonylmethyl-4-[2-(3,5-dichloro-4-pyridyl)-1-oxoethyl]-7-methoxybenzofuran]				96%	244 to 246 °C
